Holding throughout (assay): cell-based
Test [1] concerns the target PTGER2 (EP2) (Homo sapiens, UniProt P43116).
Test [2] concerns the target PTRGER4 (EP4) (Homo sapiens, UniProt P35408).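 Further: assay plate preincubated 15 min at 37 °C, after which PGE2 was added at 20 nM final and incubation continued 120 min at 37 °C.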
For test [3], the target named is EP2 (Homo sapiens, UniProt P43116).
Protocol: The antagonistic activities of the compounds of formula (I) on the EP2 and EP4 receptors are also determined in accordance with the following experimental method.
Human tumor cell lines expressing endogenously either EP4 or EP2 are used and cAMP accumulation in cells upon PGE2 stimulation is monitored. SF295 glioblastoma cells express high endogenous EP2 and no EP4,whereas BT549 breast cancer cells, express high endogenous EP4 levels and very low EP2 levels.
(§1) As a detection method for cAMP the HTRF (homogeneous time resolved fluorescence) Cisbio kit (HTRF cAMP dynamic 2 kit 20′000 tests Cisbio Cat. #62AM4PEC) was used, which is based on a competitive immunoassay using a Cryptate-labeled anti-cAMP antibody and d2-labeled cAMP. Native cAMP produced by cells or unlabeled cAMP (for the standard curve) compete with exogenously added d2-labeled cAMP (acceptor) for binding to monoclonal anti-cAMP-Eu3+ Cryptate (donor). A FRET signal (Fluorescence Resonance Energy Transfer) is obtained only if the labeled anti-cAMP antibody binds the d2 labelled cAMP, thus the specific signal (i.e. energy transfer) is inversely proportional to the concentration of cAMP in the standard or sample.
The SF295 cells (NCI/No. 0503170) are detached from culture dishes with a cell dissociation buffer (Invitrogen, 13151-014), and collected in growing medium (GM: RPM11640 (Invitrogen 21875)/10% FCS, 1% Penicilin/streptomycin). Cells are counted washed and resuspended in assay buffer (AB; HBSS, 20 mM HEPES, 0.2% BSA; 2 mM IBMX). 4′000 cells in 5 μl of AB are seeded per well of a small volume 384 well plate (black with flat bottom, Greiner 784076).
PGE2 (Cayman 14010, stock solution: 750 in DMSO) is used as agonist at 75 nM final concentration, corresponding to EC80.
Two point five microliters of diluted compounds are transferred into the assay plate. Plate is pre-incubated 45 minutes at room temperature. Subsequently, 2.5 microliters of PGE2 (final conc. 75 nM) are transferred into the assay plate. Plate is incubated 30 minutes at room temperature.
(§2) For each compound concentration the percentage of cAMP compared to DMSO control value as average±STDEV (each concentration is measured in duplicate) is calculated.
For test [4], the target named is EP4 (Homo sapiens, UniProt P35408).
Chain of EP4 (P35408 whole entry): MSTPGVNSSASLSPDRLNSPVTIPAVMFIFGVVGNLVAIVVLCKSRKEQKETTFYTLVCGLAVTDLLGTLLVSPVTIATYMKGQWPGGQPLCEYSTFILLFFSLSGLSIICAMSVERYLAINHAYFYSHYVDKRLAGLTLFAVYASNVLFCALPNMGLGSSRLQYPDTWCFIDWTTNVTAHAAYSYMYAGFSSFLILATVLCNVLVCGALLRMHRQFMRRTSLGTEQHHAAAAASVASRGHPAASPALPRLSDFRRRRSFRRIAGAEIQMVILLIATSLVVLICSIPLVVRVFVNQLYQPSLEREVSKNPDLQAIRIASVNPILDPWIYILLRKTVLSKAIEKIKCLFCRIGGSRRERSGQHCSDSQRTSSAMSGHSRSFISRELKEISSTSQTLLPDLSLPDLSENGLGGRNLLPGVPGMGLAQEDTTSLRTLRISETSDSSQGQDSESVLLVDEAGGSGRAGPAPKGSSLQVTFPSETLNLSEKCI
Description: Human tumor cell lines expressing endogenously either EP4 or EP2 are used and cAMP accumulation in cells upon PGE2 stimulation is monitored.
as §1
The BT549 cells (NCI/No. 0507282) are detached from culture dishes with a cell dissociation buffer (Invitrogen, 13151-014), and collected in growing medium (GM: RPM11640 (Invitrogen 21875)/10% FCS, 1% Penicilin/streptomycin). Cells are counted washed and resuspended in assay buffer (AB; HBSS, 20 mM HEPES, 0.2% BSA; 2 mM IBMX). 4′000 cells in 5 μl of AB are seeded per well of a small volume 384 well plate (black with flat bottom, Greiner 784076).
Stock solutions of test compounds are made at a concentration of 10 mM in DMSO, and serially diluted in DMSO to concentrations required for inhibition dose response curves (tested concentration range 30 μM-0.4 nM; 30 μM-0.015 nM or 1 μM-0.01 nM).
PGE2 (Cayman 14010, stock solution: 6 μM in DMSO) is used as agonist at 6 nM final concentration, corresponding to EC80.
Two point five microliters of diluted compounds are transferred into the assay plate. Plate is pre-incubated 45 minutes at room temperature. Subsequently, 2.5 microliters of PGE2 (final conc. 6 nM) are transferred into the assay plate. Plate is incubated 30 minutes at room temperature.
as §2
When compounds were measured multiple times, mean values are given.

Chain of PTRGER4 (EP4) (P35408 whole entry): as above
Chain of PTGER2 (EP2) (P43116 whole entry): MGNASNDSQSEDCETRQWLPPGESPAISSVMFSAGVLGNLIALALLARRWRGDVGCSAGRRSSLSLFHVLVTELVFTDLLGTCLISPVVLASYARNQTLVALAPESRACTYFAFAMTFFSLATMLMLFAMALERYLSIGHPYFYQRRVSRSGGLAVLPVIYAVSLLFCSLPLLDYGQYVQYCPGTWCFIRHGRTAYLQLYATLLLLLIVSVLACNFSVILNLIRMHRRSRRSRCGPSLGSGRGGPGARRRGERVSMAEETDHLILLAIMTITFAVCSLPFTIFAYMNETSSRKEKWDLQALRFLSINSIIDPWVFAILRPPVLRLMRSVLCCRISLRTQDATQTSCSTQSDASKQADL
Chain of EP2 (P43116 whole entry): as above

As usually defined, the IC50 is the midpoint of a concentration-inhibition curve. A lower IC50 goes with greater potency. As for `CNc1cc(-c2cc(NCCc3c(F)cc(Br)cc3F)ncn2)ccc1C(=O)O` [Example 231, 4-{6-[2-(4-Bromo-2,6-difluoro-phenyl)-ethylamino]-pyrimidin-4-yl}-2-methylamino-benzoic acid], the IC50 came out at 0.016 µM in test [1], 0.094 µM in test [2], 0.013 µM in test [3] and 0.043 µM in test [4].

On to `CCOc1cc(-c2cc(NCCc3c(F)cc(Cl)cc3OC)ncn2)sc1-c1noc(=O)[nH]1` [Example 86, 3-(5-{6-[2-(4-Chloro-2-fluoro-6-methoxy-phenyl)-ethylamino]-pyrimidin-4-yl}-3-ethoxy-thiophen-2yl)-[1,2,4]oxadiazol-5(4H)-one], for which the half-maximal inhibitory concentration (IC50) in test [1] worked out at 0.016 µM; in test [2] it was 0.03 µM; in test [3] it was 0.084 µM; in test [4] it was 0.089 µM.

Take `CCCOc1cc(-c2cc(NCCc3c(F)cc(Br)cc3F)ncn2)ccc1CC(=O)O` [Example 248, (4-{6-[2-(4-Bromo-2,6-difluoro-phenyl)-ethylamino]-pyrimidin-4-yl}-2-propoxy-phenyl)-acetic acid]: the half-maximal inhibitory concentration (IC50) amounted to 0.226 µM in test [1], 0.311 µM in test [2], 0.635 µM in test [3] and 0.299 µM in test [4].

For the compound `O=C(O)c1cccc2cc(-c3cc(NCCc4c(F)cc(Br)cc4F)ncn3)[nH]c12` [Example 263, 2-{6-[2-(4-Bromo-2,6-difluoro-phenyl)-ethylamino]-pyrimidin-4-yl}-1H-indole-7-carboxylic acid], the concentration for half-maximal inhibition (IC50) is 0.031 µM in test [1], 0.073 µM in test [2], 0.167 µM in test [3] and 0.073 µM in test [4].

For `CCOc1cc(-c2cc(NCCc3ccc(OC)cc3OC)ncn2)sc1C(=O)O` [Example 73, 5-{6-[2-(2,4-Dimethoxy-phenyl)-ethylamino]-pyrimidin-4-yl}-3-ethoxy-thiophene-2-carboxylic acid], the IC50 came to 0.054 µM in test [1], 0.136 µM in test [2], 0.03 µM in test [3] and 0.035 µM in test [4].

Turning to `CNc1cc(-c2cc(NCCc3c(F)cc(Br)cc3F)ncn2)ccc1C(N)=O` [Example 216, 4-{6-[2-(4-Bromo-2,6-difluoro-phenyl)-ethylamino]-pyrimidin-4-yl}-2-methylamino-benzamide], the half-maximal inhibitory concentration (IC50) in test [1] is 0.021 µM; in test [2], 0.017 µM; in test [3], 0.023 µM; in test [4], 0.067 µM.

As for `CCOc1cc(-c2cc(NCCc3c(F)cc(Br)cc3F)ncn2)sc1C(N)=O` [Example 279, 5-{6-[2-(4-Bromo-2,6-difluoro-phenyl)-ethylamino]-pyrimidin-4-yl}-3-ethoxy-thiophene-2-carboxylic acid amide], the IC50 in test [1] was 0.046 µM; in test [2], 0.005 µM; in test [3], 0.072 µM; in test [4], 0.012 µM.

With `CCOc1cc(-c2cc(NCCc3ccc(Br)cc3F)ncn2)ccc1C(=O)O` [Example 21, 4-{6-[2-(4-Bromo-2-fluoro-phenyl)-ethylamino]-pyrimidin-4-yl}-2-ethoxy-benzoic acid], the half-inhibitory concentration (IC50) was 0.248 µM in test [1], 0.779 µM in test [2], 0.193 µM in test [3] and 0.08 µM in test [4].

In the case of `CCc1nc(-c2cc(NCCc3c(F)cc(Br)cc3F)ncn2)sc1C(=O)O` [Example 149, 2-{6-[2-(4-Bromo-2,6-difluoro-phenyl)-ethylamino]-pyrimidin-4-yl}-4-ethyl-thiazole-5-carboxylic acid], the IC50 turned out to be 0.199 µM in test [1], 0.043 µM in test [2], 0.067 µM in test [3] and 0.073 µM in test [4].

Regarding `CCOc1cc(-c2cc(NCCc3c(F)cc(Br)cc3F)ncn2)ccc1NC=O` [Example 240, N-(4-{6-[2-(4-Bromo-2,6-difluoro-phenyl)-ethylamino]-pyrimidin-4-yl}-2-ethoxy-phenyl)-formamide], the IC50 was 0.127 µM in test [1], 0.072 µM in test [2], 0.511 µM in test [3] and 0.405 µM in test [4].

Consider `COc1cc(C(F)F)c(F)cc1CCNc1cc(-c2ccc(C(=O)O)c(SC)c2)ncn1` [Example 187, 4-{6-[2-(4-Difluoromethyl-5-fluoro-2-methoxy-phenyl)-ethylamino]-pyrimidin-4-yl}-2-methylsulfanyl-benzoic acid], for which the IC50 in test [1] is 0.13 µM; in test [2], 0.216 µM; in test [3] it was 0.26 µM; in test [4] it was 0.2 µM.

`CCOc1cc(-c2cc(NCCc3ccc(OC)cc3F)ncn2)sc1-c1noc(=O)[nH]1` [Example 92, 3-(3-Ethoxy-5-{6-[2-(2-fluoro-4-methoxy-phenyl)-ethylamino]-pyrimidin-4-yl}-thiophen-2yl)-[1,2,4]oxadiazol-5(4H)-one]: the IC50 in test [1] was determined as 0.048 µM; in test [2], 0.004 µM; in test [3] it was 0.068 µM; in test [4], 0.004 µM.

Regarding `CCc1cc(-c2cc(NCCc3c(F)cc(Br)cc3F)ncn2)sc1CC(=O)O` [Example 261, (5-{6-[2-(4-Bromo-2,6-difluoro-phenyl)-ethylamino]-pyrimidin-4-yl}-3-ethyl-thiophen-2yl)-acetic acid], the IC50 in test [1] worked out at 0.058 µM; in test [2], 0.042 µM; in test [3], 0.165 µM; in test [4], 0.101 µM.

For the compound `CCCc1cc(-c2cc(NCCc3c(F)cc(Br)cc3F)ncn2)cc(F)c1C(=O)O` [Example 39, 4-{6-[2-(4-Bromo-2,6-difluoro-phenyl)-ethylamino]-pyrimidin-4-yl}-2-fluoro-6-propyl-benzoic acid], the IC50 in test [1] was found to be 0.122 µM; in test [2] it was 0.349 µM; in test [3], 0.164 µM; in test [4], 0.697 µM.

In the case of `Cc1cc(-c2cc(NCCc3c(F)cc(Br)cc3F)ncn2)sc1-c1noc(=O)[nH]1` [Example 136, 3-(5-{6-[2-(4-Bromo-2,6-difluoro-phenyl)-ethylamino]-pyrimidin-4-yl}-3-methyl-thiophen-2-yl)-[1,2,4]oxadiazol-5(4H)-one], the half-inhibitory concentration (IC50) was found to be 0.018 µM in test [1], 0.006 µM in test [2], 0.017 µM in test [3] and 0.018 µM in test [4].

With `CCOc1cc(-c2cc(NCCc3c(F)cc(Br)cc3F)ncn2)ccc1-c1cc(O)no1` [Example 273, 5-(4-{6-[2-(4-Bromo-2,6-difluoro-phenyl)-ethylamino]-pyrimidin-4-yl}-2-ethoxy-phenyl)-isoxazol-3-ol], the IC50 turned out to be 0.045 µM in test [1], 0.056 µM in test [2], 0.364 µM in test [3] and 0.211 µM in test [4].

For the compound `CCOc1cc(-c2cc(NCCc3c(F)cc(Br)cc3F)ncn2)ccc1CC(=O)O` [Example 49, (4-{6-[2-(4-Bromo-2,6-difluoro-phenyl)-ethylamino]-pyrimidin-4-yl}-2-ethoxy-phenyl)-acetic acid], the concentration for half-maximal inhibition (IC50) was determined as 0.139 µM in test [1], 0.143 µM in test [2], 0.246 µM in test [3] and 0.159 µM in test [4].

Regarding `CCOc1cc(C(F)(F)F)ccc1CCNc1cc(-c2cc(OCC)c(C(=O)O)s2)ncn1` [Example 215, 3-Ethoxy-5-{6-[2-(2-ethoxy-4-trifluoromethyl-phenyl)-ethylamino]-pyrimidin-4-yl}-thiophene-2-carboxylic acid], the half-inhibitory concentration (IC50) stood at 0.01 µM in test [1], 0.003 µM in test [2], 0.012 µM in test [3] and 0.008 µM in test [4].

(Values after patent US11712438B2, “Phenyl derivatives as PGE2 receptor modulators” (IDORSIA PHARMACEUTICALS LTD, priority 2017, dated 2023).)
